{"source": "patent US12398117B2", "about": "“Heteroarylamidopyridinol derivative and pharmaceutical composition comprising same as active ingredient for prevention or treatment of autoimmune disease” (INNOVO THERAPEUTICS INC., priority 2019, dated 2025)", "key": {"[1]": {"test_system": "collagen-induced rheumatoid arthritis animal model", "experiment": "Oral efficacy in collagen-induced rheumatoid arthritis (CIA) mouse model", "assay_type": "in vivo, DBA/1J mice", "method": "12-week-old normal male mice and arthritis-induced DBA/1J mice were purchased from Central Lab. Animal Inc [To induce arthritis, DBA/1J mice were sensitized by injecting a mixed solution of Complete Freund's Adjuvant (CFA; DIFCO, Detroit, MI) and Bovine Type II collagen (1:1, v/v) intradermally at the pinna base at 8 weeks of age, and then, secondary sensitization was performed by intradermal injection at the tail head at 11 weeks of age]. The purchased arthritis mice were acclimatized to the laboratory environment for a week, and then oral administration of the drug was started.\nVisual observation of arthritic lesions was performed using the following scores based on a reference (Barnett et al., 1998).\nTherefore, the highest score for arthritic lesions was 16 per mouse.\nThe hind paw thickness, which is one of the pathological indices of rheumatoid arthritis, was measured using a caliper.\nThe right hind leg of each mouse was extracted, and all skin and muscles were removed, leaving only the bones and joints. The hind leg was fixed in 4% paraformaldehyde solution for 2 days, then immersed in 10% formic acid for 5 days to decalcify, and then immersed in 30% sucrose solution. When the tissue subsided, the articular tissue was cut into […] thick using a cryomicrotome (Microm HM 450, Thermo Fisher Scientific, Germany) and stored in a cryopreservation solution. Staining was performed using the stored tissue sections. After attaching the tissue sections to the slide glass, they were hydrated with 100%, 95%, 70%, and 50% ethanol solutions, and some were stained with safranin and others were stained with hematoxylin/eosin. For safranin staining, the tissue sections were first stained with 0.1% fast green solution, washed with 1% acetic acid solution, and then stained with 1% safranin solution. Thereafter, the tissue sections were dehydrated by immersing in ethanol solutions in the reverse order of hydration, and then preserved in xylene solution and mounting solution, and photographed under a microscope. Hematoxylin/eosin staining was performed in the same manner as in the colon tissue staining. The tissue sections were dehydrated, preserved in xylene solution and mounting solution, and observed under a microscope.\nThe degree of microscopic tissue damage of the stained articular tissue was measured using the following scores.\nAfter the spleen and draining lymph nodes of the mice were extracted, the number of immune cells was counted. To confirm the distribution of Th1 and Th17 cells, the immune cells obtained from each organ were stimulated using PMA/Ionomycin and Golgi stop.\nAfter staining using an anti-IFN-γ antibody that can identify Th1 cells, an anti-IL-17 antibody that can identify Th17 cells, and an anti-CD8 antibody that can identify cytotoxic T cells, the proportion of inflammatory cells among the total immune cells was confirmed using flow cytometry."}, "[2]": {"test_system": "adhesion of intestinal epithelial cells (HT-29) and monocytic cells (U937) induced by TNF-α", "experiment": "Inhibition of TNF-α-induced adhesion of monocytes and intestinal epithelial cells", "assay_type": "cell-based, human", "details": "Homo sapiens", "method": "HT-29 human colon cancer-derived epithelial cells and U937 human-derived monocytes were cultured in RPMI 1640 medium containing 10% FBS and 1% penicillin/streptomycin (PS) in a 37° C., 5% CO2 incubator. When the cells grew more than 80% of the bottom area of the culture flask, they were passaged at a ratio of 1:3 and used in this experiment. HT-29 cells were cultured in a 24-well plate at the density of 2×10^5 cells/cm^2, and the test drug was pretreated in a medium containing 1% FBS and 1% PS for 1 hour. Thereafter, 10 μg/mL of BCECF-AM was treated thereto and reacted at 37° C. for 30 minutes. U937 cells loaded with BCECF and TNF-α (10 ng/mL) were reacted with HT-29 cells previously treated with the test drug at 37° C. for 3 hours. Upon completion of the reaction, the medium was removed, and the culture flask was washed twice with PBS to remove non-adherent U937 cells. In the next step, the cells were lysed by treating with 0.1% Triton X-100 (0.1 M Tris) and reacted at room temperature for 30 minutes. Then, fluorescence was measured and quantified using a fluostar optima microplate reader (BMG Labtechnologies, Germany) (Carvalho et al., 1996; Thapa et al., 2008)."}, "[3]": {"test_system": "TNBS-induced inflammatory bowel disease rat model", "experiment": "Oral efficacy in TNBS-induced inflammatory bowel disease rat model", "assay_type": "in vivo, Sprague Dawley rats", "method": "Sprague Dawley rats aged 7-8 weeks were purchased from OrientBio (Korea), stabilized with general solid feed for 3 days, and then used in this experiment. Feed and water were freely supplied during the experiment period, and the temperature of the breeding room was maintained at 25±1° C. and the relative humidity at 50±10%. Lighting management was controlled in a 12-hour light-dark cycle by an automatic lighting controller.\nAfter anesthetizing rats that had been fasted for 24 hours with diethyl ether, 0.8 mL of 5% TNBS diluted with 50v/v % ethanol was slowly injected into the lumen of the colon using a 1 mL syringe connected to a polyethylene catheter, and then, the rats were left standing for 60 seconds in an inverted position in order to prevent 5% TNBS from leaking into the anus. For the control group, only vehicle [50v/v % ethanol] was injected in the same manner as in the other groups (Thapa et al., 2008).\nIn order to investigate the effect of the drug, the drug was administered at a constant time every day for 5 days from the day after the TNBS treatment.\nChanges in body weight of each rat were observed from the fasting stage to the TNBS administration and drug administration process using a digital mass meter.\nThe colon of the rat was extracted, and the tissue 5-6 cm away from the anus was cut into a length of 1 cm, and the weight of the tissue was measured.\nThe weighed rat tissues were fixed with 4% paraformaldehyde solution, and then transferred to 30% sucrose solution. When the tissues subside, they were taken out and cut into […] thick using a cryomicrotome (Microm HM 450, Thermo Fisher Scientific, Germany) and stored in a cryopreservation solution. After washing the tissue section with KPBS, the tissue section was attached to a slide glass, dried, and then stained with hematoxylin & Eosin and observed under a microscope."}, "[4]": {"details": "0.3 mg/kg, dose-dependence test (Table 7)"}, "[5]": {"details": "1 mg/kg, dose-dependence test (Table 7)"}, "[6]": {"details": "3 mg/kg, dose-dependence test (Table 7)"}, "[7]": {"details": "10 mg/kg, dose-dependence test (Table 7)"}, "[8]": {"details": "oral 1 mg/kg, 5 days, fixed-dose test (Table 6)"}}, "data": [{"smiles": "Cc1ccc2[nH]c(C(=O)Nc3nc(C)c(O)c(C)c3C)cc2c1", "note": "[Compound X-09, N-(5-hydroxy-3,4,6-trimethylpyridin-2-yl)-5-methyl-1H-indole-2-carboxamide]", "values": [{"measurement": "number of inflammatory cells Th1 and Th17 and activated CD8 cells in spleen", "setting": "[1]; after 35 days of drug administration, FIG. 8B", "value": "dose-dependent decrease"}, {"measurement": "number of inflammatory cells Th1 and Th17 and activated CD8 cells in draining lymph node", "setting": "[1]; after 35 days of drug administration, FIG. 8C", "value": "dose-dependent effect"}, {"measurement": "hind paw thickness", "setting": "[1]; oral 50 mg/kg, 35th day of drug administration", "value": 1.70, "unit": "mm"}, {"measurement": "arthritis score", "setting": "[1]; oral 50 mg/kg, 35th day of drug administration, maximum score 16", "value": 7.2}, {"measurement": "degree of arthritis (visual observation score)", "setting": "[1]; oral, up to 35 days, FIG. 5A", "value": "significantly improved dose dependently"}, {"measurement": "inhibition at 1 µM", "setting": "[2]; test drug 1 μM, TNF-α 10 ng/mL, HT-29/U937, read-out: Inhibitory activity (%)", "value": 82.8, "unit": "%"}, {"measurement": "IC50", "setting": "[2]; inhibition of adhesion by TNF-α", "value": 0.3, "unit": "µM"}, {"measurement": "Body weight recovery rate (%)", "setting": "[3]; [4]", "value": 17.2, "unit": "%"}, {"measurement": "Intestinal weight recovery rate (%)", "setting": "[3]; [4]", "value": 47.0, "unit": "%"}, {"measurement": "Body weight recovery rate (%)", "setting": "[3]; [5]", "value": 69.3, "unit": "%"}, {"measurement": "Intestinal weight recovery rate (%)", "setting": "[3]; [5]", "value": 85.2, "unit": "%"}, {"measurement": "Body weight recovery rate (%)", "setting": "[3]; [6]", "value": 74.6, "unit": "%"}, {"measurement": "Intestinal weight recovery rate (%)", "setting": "[3]; [6]", "value": 91.7, "unit": "%"}, {"measurement": "Body weight recovery rate (%)", "setting": "[3]; [7]", "value": 80.8, "unit": "%"}, {"measurement": "Intestinal weight recovery rate (%)", "setting": "[3]; [7]", "value": 98.9, "unit": "%"}, {"measurement": "Mucosal damage recovery of rat colon (hematoxylin-eosin score)", "setting": "[3]; X-09 dose range, FIG. 1", "value": "dose-dependent mucosal damage recovery activity"}, {"measurement": "Morphological observation of colon (visual symptoms, adhesions, congestion)", "setting": "[3]; after 5 days of drug administration, sulfasalazine 300 mg/kg, X-09 0.3-10 mg/kg", "value": "dose-dependent therapeutic activity for enteritis"}, {"measurement": "Body weight recovery rate (%)", "setting": "[3]; [8]", "value": 72.7, "unit": "%"}, {"measurement": "Intestinal weight recovery rate (%)", "setting": "[3]; [8]", "value": 94.0, "unit": "%"}]}]}
